Assays:
[1] = test system: MCF-7 breast cancer cells; assay: Cell Proliferation and Cytotoxicity Assay (CCK-8); assay type: cell-based; settings: FIG. 15
Text: Cell Counting Kit-8 (CCK-8) (Dojindo) was used to determine the cytotoxicity of cells. CCK-8 assay kit uses a water-soluble WST-8 tetrazolium salt. This tetrazolium salt produces a water-soluble formazan dye upon reduction in the presence of an electron mediator (dehydrogenase). When WST-8 is reduced by dehydrogenases in living cells an orange colored product (formazan) is produced that can be detected in a 96-well plate format. The amount of the formazan dye generated by dehydrogenases is directly proportional to the number of living cells.
For this assay the following materials were required:
1. Plate reader (450 nm filter);
5. Tissue Culture Media; and
6. Actively growing cells (75-80% confluency).
The following dilutions with cell media were made prior to performance of an assay: Test compound solutions were made in a range from nano-molar to micro-molar with a final DMSO concentration not exceeding 0.1% and a total volume (e.g., 300 ul) necessary to perform duplicates of 100 μl doses.
A Cell Proliferation and Cytotoxicity Assay was performed as follows:
1. Dispense 100 μl of cell suspension (5000 cells/well) in a 96-well plate equal to the number of treatments plus controls done in duplicate;
2. Allow seeded cells to plate for 24 hours in a humidified incubator (at 37° C., 5% CO2);
3. […]
7. Measure the absorbance at 450 nm using a micro-plate reader; and […]

[2] = target: Human recombinant HDAC3 (Homo sapiens, UniProt O15379); assay: HDAC isomer assay, Fluor-de-Lys, HDAC3; assay type: biochemical
Description: (§1) The HDAC isomer (HDAC1, 3, and 6) assays were performed as follows:
(§2) Materials: Human recombinant HDAC isomer (HDAC1, HDAC3, and HDAC6); Fluor-de-Lys HDAC substrates; 360 nm excitation 460 nm emission Plate Reader; Disposable pipettes; Pipet-aid; Pipette tips; Micro-pipetter; DMSO; Sterile micro-tubes and conical tubes; and Micro-centrifuge.
(§3) Test compounds and control preparation: All test compounds' stock solutions were made in 100% DMSO. Test compound dilutions were made in HDAC Assay buffer with a final concentration of DMSO less than or equal to 1%. Vehicle control was HDAC Assay buffer with 1% DMSO.
(§4) The reagents for the assay were prepared as follows:
(§5) 1. All kit components were defrosted and these, and all dilutions described below, were kept on ice until use. All undiluted kit components are stable for several hours on ice.
(§6) 2. A sufficient amount of HDAC source diluted in Assay Buffer (BML-KI143) was prepared to provide for the assays that were performed (# of wells×15 μl). A 30-fold dilution of the HeLa Extract means that 15p L contains 0.5 μl of the undiluted Extract, an appropriate amount to use per well.
(§7) 3. Dilution(s) of SAHA and/or Test Inhibitors were prepared in Assay Buffer (BML-KI143). […]
(§8) 6. Samples were read in a microtiter-plate reading fluorimeter capable of excitation at a wavelength in the range 350-380 nm and detection of emitted light in the range 440-460 nm.

[3] = target: Human recombinant HDAC1 (Homo sapiens, UniProt Q13547); assay: HDAC isomer assay, Fluor-de-Lys, HDAC1; assay type: biochemical
Description: as §1, §2, §3, §4, §5, §6, §7, §8

Sequence of Human recombinant HDAC1 (Q13547 whole entry): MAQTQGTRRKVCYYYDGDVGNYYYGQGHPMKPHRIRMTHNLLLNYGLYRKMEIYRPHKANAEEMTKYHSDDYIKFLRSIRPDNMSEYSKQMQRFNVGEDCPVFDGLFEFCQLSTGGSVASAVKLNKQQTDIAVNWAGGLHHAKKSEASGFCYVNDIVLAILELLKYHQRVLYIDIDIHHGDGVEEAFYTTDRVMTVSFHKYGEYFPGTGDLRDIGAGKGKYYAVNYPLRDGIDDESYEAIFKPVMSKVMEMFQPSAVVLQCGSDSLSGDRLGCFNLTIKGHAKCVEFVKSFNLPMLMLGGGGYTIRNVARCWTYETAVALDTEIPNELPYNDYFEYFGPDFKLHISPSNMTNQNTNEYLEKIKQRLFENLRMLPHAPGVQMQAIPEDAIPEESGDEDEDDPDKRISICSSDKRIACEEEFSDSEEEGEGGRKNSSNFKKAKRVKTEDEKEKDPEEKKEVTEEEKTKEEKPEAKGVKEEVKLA
Sequence of Human recombinant HDAC3 (O15379 whole entry): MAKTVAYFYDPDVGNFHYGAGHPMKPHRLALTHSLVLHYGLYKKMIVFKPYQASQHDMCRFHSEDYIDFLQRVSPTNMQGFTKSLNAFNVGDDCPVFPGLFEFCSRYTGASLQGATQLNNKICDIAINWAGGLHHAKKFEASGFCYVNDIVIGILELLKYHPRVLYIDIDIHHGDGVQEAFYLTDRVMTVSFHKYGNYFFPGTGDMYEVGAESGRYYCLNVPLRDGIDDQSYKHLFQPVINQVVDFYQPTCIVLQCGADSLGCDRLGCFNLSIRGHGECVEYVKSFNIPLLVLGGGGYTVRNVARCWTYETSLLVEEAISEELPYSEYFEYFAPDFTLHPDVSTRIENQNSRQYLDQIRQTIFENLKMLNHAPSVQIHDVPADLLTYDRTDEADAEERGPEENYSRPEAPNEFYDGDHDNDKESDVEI
Sequence of Human recombinant HDAC3 (Q9Y618 395-489 partner limits assumed): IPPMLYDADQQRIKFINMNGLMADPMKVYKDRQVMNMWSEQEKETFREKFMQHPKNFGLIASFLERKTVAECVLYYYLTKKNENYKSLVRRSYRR

Row | EC50 ([2]; Example 4, FIG. 10) [µM] | IC50 ([2]; Example 6, FIG. 18, 2 mg/mL formulation in 5% DMSO/40% PEG 400/55% PBS, read-out: IC50 against HDAC3 protein) [µM] | EC50 ([3]; Example 4, FIG. 9) [µM] | IC50 ([3]; Example 6, FIG. 18, 2 mg/mL formulation in 5% DMSO/40% PEG 400/55% PBS, read-out: IC50 against HDAC1 protein) [µM] | SMILES | EC50 ([1]; Homo sapiens, MCF7, 48 hours incubation, read-out: EC50 against MCF-7 breast cancer cells) [µM] | MCF-7 cells killed ([1]; at about 10 μM) [%]
1 | – | – | – | – | O=C(CCCCCCC(=O)NC1CCC(=O)NC1=O)NO (stereo not drawn) [SP-2-59, N^1-(2,6-dioxopiperidin-3-yl)-N^8-hydroxyoctanediamide] | 5.03 | 78
2 | 3.07 | 3.07 | 1.54 | 1.54 | O=C(CCCCCCC(=O)Nc1cccc2c1CN(C1CCC(=O)NC1=O)C2=O)NO (stereo not drawn) [SP-2-93, N^1-(2-(2,6-dioxopiperidin-3-yl)-1-oxoisoindolin-4-yl)-N^8-hydroxyoctanediamide] | – | –

From patent US11584733B2, “Selective histone deacetylase inhibitors for the treatment of human disease” (Shuttle Pharmaceuticals, Inc., priority 2017, dated 2023)
